# Test results as given in US20250205200A1, “5-METHOXY-N,N-[…][…] THE TREATMENT OF […]” (GH RESEARCH IRELAND LIMITED, priority 2022, published 2025).
# How the values were obtained:
# [1] = tested on: Salmonella typhimurium (TA98, TA100, TA1535 and TA1537); assay: Bacterial mutation test, Salmonella typhimurium; assay type: cell-based; settings: up to 5000 μg/plate; absence and presence of S-9
# Method: (§1) These conditions included treatments at concentrations up to 5000 μg/plate (the maximum recommended concentration according to current regulatory guidelines), in the absence and in the presence of a rat liver metabolic activation system (S-9).
# [2] = tested on: Escherichia coli (WP2 uvrA pKM101); assay: Bacterial mutation test, Escherichia coli; assay type: cell-based; settings: up to 5000 μg/plate; absence and presence of S-9
# Method: as §1
compound,measurement,setting,value
COc1ccc2[nH]cc(CCN(C)C)c2c1 [5-MeO-DMT],Induction of mutation,[1],did not induce mutation
same,Induction of mutation,[2],did not induce mutation
